One data set deals with T1, KV4.3 (Homo sapiens, UniProt Q9UK17).
T1 construct: expressed in transfected cells
T1 sequence (Q9UK17 1-655): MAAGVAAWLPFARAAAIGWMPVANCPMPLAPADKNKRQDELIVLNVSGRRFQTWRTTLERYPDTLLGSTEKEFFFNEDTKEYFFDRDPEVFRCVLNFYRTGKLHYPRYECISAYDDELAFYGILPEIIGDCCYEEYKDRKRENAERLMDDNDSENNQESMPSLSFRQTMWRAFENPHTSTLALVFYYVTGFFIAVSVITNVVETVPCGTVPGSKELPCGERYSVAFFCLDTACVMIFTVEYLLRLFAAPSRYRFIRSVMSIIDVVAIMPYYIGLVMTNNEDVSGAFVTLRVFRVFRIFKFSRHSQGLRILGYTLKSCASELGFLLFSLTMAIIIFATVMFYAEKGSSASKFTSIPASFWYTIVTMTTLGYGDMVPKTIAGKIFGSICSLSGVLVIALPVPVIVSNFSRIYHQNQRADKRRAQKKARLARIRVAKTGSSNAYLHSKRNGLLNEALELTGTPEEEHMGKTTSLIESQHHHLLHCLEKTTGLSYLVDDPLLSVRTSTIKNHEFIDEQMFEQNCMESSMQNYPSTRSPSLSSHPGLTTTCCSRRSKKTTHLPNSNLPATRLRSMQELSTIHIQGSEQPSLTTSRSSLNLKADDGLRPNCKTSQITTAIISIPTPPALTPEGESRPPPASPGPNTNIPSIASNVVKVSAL
In words: Whole-cell patch clamp on KV4.3 (Ito). Type of data set: cell-based. The settings on record: read-out: Reference compound % inhibition. Here is the method:
(§1) and CiPA Initiative Studies
(§2) =============================================================
(§3) In vitro studies on other ion channels […]
(§4) through NaV1.5, KV4.3, KV7.1/mink, Kir2.1, KV1.5, CaV1.2 and CaV3.2 channels.
(§5) 35-mm dish culture in the conditions mentioned in standard cell culture conditions. Experiments were performed with a cell density enabling isolated cells for patch clamping. Cells were continuously superfused with extracellular medium (1-2 mL∙minute-1) at room temperature.
(§6) D-glucose 10, HEPES 10 and the final pH adjusted to 7.4±0.02 with NaOH for recording NaV1.5, KV4.3, KV7.1/mink, Kir2.1, KV1.5 and CaV3.2 currents. It was (in mM): NaCl 110, KCl 4, BaCl2 20, MgCl2 1, D-glucose 20, HEPES 10 and the final pH adjusted to 7.4 ± 0.02 with NaOH for recording the CaV1.2 current. Compositions of the intracellular solution to fill the pipette are […]
(§7) Composition of intracellular solutions used to fill pipette to record currents through NaV1.5, KV4.3, KV7.1/mink, Kir2.1, KV1.5, CaV1.2 and CaV3.2 channels
(§8) Solution to fill the pipette (mM)
(§9) Creatine-phospho kinase 50 U∙mL-1
(§10) After formation of a Gigaohm seal between the patch electrodes and individual cells (pipette resistance range: 2.0 MΩ - 7.0 MΩ; seal resistance range: > 1 GΩ) the cell membrane across the pipette tip was ruptured to assure electrical access to the cell interior (whole-cell patch-configuration). In case the quality of the seal was poor, the process of seal formation was repeated with a different cell and a new pipette. As soon as a stable seal was established outward tail currents were measured upon pulses described in the Table S2. If current density was judged to be too low for measurement, another cell was recorded. […]
(§11) voltage stimulation protocol indicated in the next table continuously run until the steady-state level of block was reached.
(§12) Stimulation conditions used to record currents through NaV1.5, KV4.3, KV7.1/mink, Kir2.1, KV1.5, CaV1.2 and CaV3.2 channels
(§13) Ion channel Holding potential Pulse / duration Frequency Reference compound […]
(§14) (resting / fast / slow sweeps at one (10 mM) inactivated concentration)
(In general: The patch-clamp technique gives a direct electrical read-out from membranes.)

For the next data set, the system named is late INa current. Also noted: method as in Obejero‐Paz et al., 2015. To be noted: ref Obejero‐Paz et al., 2015; cited from earlier work.
Data set [1] deals with hERG channel. The settings on record: cited from earlier work.
Data set [2] concerns late INa. To be noted: at clinical Cmax; ref Vicente et al., 2015; cited from earlier work.
The next data set deals with canine Purkinje fibres. Also noted: method as in Fazekas et al., 1998. The settings on record: mexiletine (10 mM) added after erythromycin, ref Fazekas et al., 1998; cited from earlier work.
The next data set concerns late sodium current. Further details: method as in Johannesen et al., 2016. The settings on record: at the concentrations that caused approximately 20 ms shortening of QTc; ref Johannesen et al., 2016; cited from earlier work.
In data set [3] the test system is late INa. The settings on record: read-out: IC50 for late INa; ref Gao et al., 2013; cited from earlier work.
For another data set, the system named is fast INa. The settings on record: read-out: IC50 for fast INa; ref Gao et al., 2013; cited from earlier work.
The test system of data set [4] is hERG channel. The settings on record: cited from earlier work. This is another data set of the same source.
For data set [5] the following is noted: in vivo; cited from earlier work.
In another data set the target is T2, Kir2.1 (Homo sapiens, UniProt P63252).
T2 construct: expressed in transfected cells
T2 sequence (P63252 1-427): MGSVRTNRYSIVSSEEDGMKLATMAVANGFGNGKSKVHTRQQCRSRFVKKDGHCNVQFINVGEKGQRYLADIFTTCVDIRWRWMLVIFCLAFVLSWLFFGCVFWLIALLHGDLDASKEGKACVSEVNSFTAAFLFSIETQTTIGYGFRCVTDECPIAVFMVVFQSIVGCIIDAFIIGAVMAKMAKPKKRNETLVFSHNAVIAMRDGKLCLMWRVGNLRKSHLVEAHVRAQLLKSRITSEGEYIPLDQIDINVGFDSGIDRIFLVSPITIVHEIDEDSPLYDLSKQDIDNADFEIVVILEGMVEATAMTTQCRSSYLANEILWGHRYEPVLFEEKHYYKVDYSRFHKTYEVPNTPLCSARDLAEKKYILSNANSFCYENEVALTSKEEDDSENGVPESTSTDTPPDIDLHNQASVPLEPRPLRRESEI
In words: Whole-cell patch clamp on Kir2.1 (IK1). The settings on record: Kir2.1 IK1; 10 μM. Type of data set: cell-based. As for the experimental part:
as §1, §2, §3, §4, §5, §6, §7, §8, §9, §10, §11, §12, §13, §14

In another data set the target is T3, KV1.5 (Homo sapiens, UniProt P22460).
T3 construct: expressed in transfected cells
In words: Whole-cell patch clamp on KV1.5 (IKur). It is filed as cell-based. The settings on record: read-out: Reference compound % inhibition. As for the experimental part: as §1, §2, §3, §4, §5, §6, §7, §8, §9, §10, §11, §12, §13, §14

For another data set, the target named is T4, KV7.1/mink (Homo sapiens, UniProt P51787).
T4 construct: expressed in transfected cells
In words: Whole-cell patch clamp on KV7.1/mink (IKs). Type of data set: cell-based. To be noted: read-out: Reference compound % inhibition. As for the experimental part: as §1, §2, §3, §4, §5, §6, §7, §8, §9, §10, §11, §12, §13, §14

The next data set addresses T5, CaV3.2 (Homo sapiens, UniProt O95180).
T5 construct: expressed in transfected cells
In words: Whole-cell patch clamp on CaV3.2 (ICaT). Type of data set: cell-based. To be noted: read-out: Reference compound % inhibition. As for the experimental part:
as §1, §2, §3, §4, §5, §6, §7, §8, §9, §10, §11, §12, §13, §14

The next data set concerns anaesthetized rabbits. Here is the method:
All the other experimental groups were 100% female. Animals were anaesthetized with sodium pentobarbital (45–60 mg·kg^−1 i.v.), maintained on a heated pad and mechanically ventilated with room air. […] A fluid‐filled catheter was inserted into the carotid artery to measure systemic arterial blood pressure and for blood sampling. A venous catheter was implanted into the jugular vein for infusion of drugs. Standard surface ECG leads I, II and III were monitored continuously to measure ECG intervals and the occurrence of ventricular tachyarrhythmia. Measurements of arterial blood pressures were calculated over 30 s duration at baseline and every 5 min. […] Then, for all determinations, the means of 10–30 consecutive sinus beats were automatically calculated at each time point (i.e. at the end of the stabilization period and then every 5 until 60 min after starting drug infusion) or until the occurrence of premature ventricular beats. Parameters recorded were systolic, diastolic and mean arterial blood pressure (mmHg), heart rate (beats·min^‐1 calculated from RR interval) as well as PR, QRS and QT/QTU intervals (ms), amplitudes of T‐wave and U‐wave (mV) and rhythm disturbances retrieved from ECG signals. […] Arrhythmia were scored according to the following scale: 0 being no arrhythmia, 1 being premature beats, 2 being auriculo‐ventricular blocks, 3 being ventricular tachycardia and 4 being TdP; and scores correspond to the average of maximal life‐threatening arrhythmias recorded during the experiment. […] Haemodynamic and ECG recordings were monitored continuously over 60 min following the start of infusion.

For data set [6], the system named is methoxamine‐sensitized rabbits. In words: in vivo. Further details: species or system rabbit. To be noted: clofilium 20.5 μg·kg^−1·min^−1. As for the experimental part: All the other experimental groups were 100% female.
The anaesthetized methoxamine‐sensitized rabbit model of TdP is frequently used to study torsadogenic potential of drugs (Carlsson et al., 1990). Briefly, female animals were pre‐sensitized with i.v. infusion of methoxamine, an α1‐adrenoceptor agonist, delivered at 15 μg·kg^−1·min^−1 (6 mL·h^−1) over 70 min.

A further data set concerns rabbit Purkinje fibres. In words: Dofetilide-induced early after-depolarizations and triggered activity in rabbit Purkinje fibres. It is filed as cell-based. Here is the method: Following a lethal dose of pentobarbital, the hearts of male New Zealand rabbits were immediately excised and immersed in a modified Tyrode solution maintained at room temperature and previously saturated with O2/CO2 (95%/5%). A piece of ventricle containing free running Purkinje fibres was fixed to the silastic bottom of an organ bath perfused with the same solution maintained at 37°C for 30 min. The preparation was then superfused with the modified Tyrode solution and stimulated for 30 min at 2 Hz and then at 1 Hz (2 ms stimulus at twice threshold). […] After a stabilization period of at least 1 h, action potentials typical for Purkinje fibres were recorded. Action potential reproducibility and stability were confirmed during a further 20 min stabilization period. […] Each was applied for 20 min to enable steady state to be reached. In addition, the emergence of early after‐depolarizations (EADs), favoured by calcium loading during the late phase 2 of the prolonged action potential, is recognized as a better marker of pro‐arrhythmic potential than APD prolongation alone.

The subject of the next data set is hERG. Further details: method as in Jonker et al., 2005. The settings on record: simulation study; 95% CI: 12–32 ms; ref Jonker et al., 2005; cited from earlier work.

Where two headings read alike, the source gives them in different places.

Broadly, the inhibition is the relative decrease from the control value, in per cent. What is called IC50 is the midpoint of a concentration-inhibition curve.

T3 sequence (P22460 whole entry): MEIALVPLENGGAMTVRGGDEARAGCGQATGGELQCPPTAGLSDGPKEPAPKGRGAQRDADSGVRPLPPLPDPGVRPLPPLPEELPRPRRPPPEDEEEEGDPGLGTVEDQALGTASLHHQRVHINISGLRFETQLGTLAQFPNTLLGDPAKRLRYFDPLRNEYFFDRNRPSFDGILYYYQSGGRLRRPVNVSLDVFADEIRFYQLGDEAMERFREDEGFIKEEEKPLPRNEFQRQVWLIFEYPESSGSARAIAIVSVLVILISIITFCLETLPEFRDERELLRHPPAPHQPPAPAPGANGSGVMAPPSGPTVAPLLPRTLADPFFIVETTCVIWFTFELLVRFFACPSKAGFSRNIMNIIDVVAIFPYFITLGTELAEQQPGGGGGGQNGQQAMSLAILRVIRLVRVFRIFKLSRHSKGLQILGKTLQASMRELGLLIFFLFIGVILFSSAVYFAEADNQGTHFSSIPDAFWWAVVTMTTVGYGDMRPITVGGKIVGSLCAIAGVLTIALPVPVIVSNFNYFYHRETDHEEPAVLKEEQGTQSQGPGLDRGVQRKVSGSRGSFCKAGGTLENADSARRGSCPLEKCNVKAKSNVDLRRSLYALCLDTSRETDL
T5 sequence (O95180 whole entry): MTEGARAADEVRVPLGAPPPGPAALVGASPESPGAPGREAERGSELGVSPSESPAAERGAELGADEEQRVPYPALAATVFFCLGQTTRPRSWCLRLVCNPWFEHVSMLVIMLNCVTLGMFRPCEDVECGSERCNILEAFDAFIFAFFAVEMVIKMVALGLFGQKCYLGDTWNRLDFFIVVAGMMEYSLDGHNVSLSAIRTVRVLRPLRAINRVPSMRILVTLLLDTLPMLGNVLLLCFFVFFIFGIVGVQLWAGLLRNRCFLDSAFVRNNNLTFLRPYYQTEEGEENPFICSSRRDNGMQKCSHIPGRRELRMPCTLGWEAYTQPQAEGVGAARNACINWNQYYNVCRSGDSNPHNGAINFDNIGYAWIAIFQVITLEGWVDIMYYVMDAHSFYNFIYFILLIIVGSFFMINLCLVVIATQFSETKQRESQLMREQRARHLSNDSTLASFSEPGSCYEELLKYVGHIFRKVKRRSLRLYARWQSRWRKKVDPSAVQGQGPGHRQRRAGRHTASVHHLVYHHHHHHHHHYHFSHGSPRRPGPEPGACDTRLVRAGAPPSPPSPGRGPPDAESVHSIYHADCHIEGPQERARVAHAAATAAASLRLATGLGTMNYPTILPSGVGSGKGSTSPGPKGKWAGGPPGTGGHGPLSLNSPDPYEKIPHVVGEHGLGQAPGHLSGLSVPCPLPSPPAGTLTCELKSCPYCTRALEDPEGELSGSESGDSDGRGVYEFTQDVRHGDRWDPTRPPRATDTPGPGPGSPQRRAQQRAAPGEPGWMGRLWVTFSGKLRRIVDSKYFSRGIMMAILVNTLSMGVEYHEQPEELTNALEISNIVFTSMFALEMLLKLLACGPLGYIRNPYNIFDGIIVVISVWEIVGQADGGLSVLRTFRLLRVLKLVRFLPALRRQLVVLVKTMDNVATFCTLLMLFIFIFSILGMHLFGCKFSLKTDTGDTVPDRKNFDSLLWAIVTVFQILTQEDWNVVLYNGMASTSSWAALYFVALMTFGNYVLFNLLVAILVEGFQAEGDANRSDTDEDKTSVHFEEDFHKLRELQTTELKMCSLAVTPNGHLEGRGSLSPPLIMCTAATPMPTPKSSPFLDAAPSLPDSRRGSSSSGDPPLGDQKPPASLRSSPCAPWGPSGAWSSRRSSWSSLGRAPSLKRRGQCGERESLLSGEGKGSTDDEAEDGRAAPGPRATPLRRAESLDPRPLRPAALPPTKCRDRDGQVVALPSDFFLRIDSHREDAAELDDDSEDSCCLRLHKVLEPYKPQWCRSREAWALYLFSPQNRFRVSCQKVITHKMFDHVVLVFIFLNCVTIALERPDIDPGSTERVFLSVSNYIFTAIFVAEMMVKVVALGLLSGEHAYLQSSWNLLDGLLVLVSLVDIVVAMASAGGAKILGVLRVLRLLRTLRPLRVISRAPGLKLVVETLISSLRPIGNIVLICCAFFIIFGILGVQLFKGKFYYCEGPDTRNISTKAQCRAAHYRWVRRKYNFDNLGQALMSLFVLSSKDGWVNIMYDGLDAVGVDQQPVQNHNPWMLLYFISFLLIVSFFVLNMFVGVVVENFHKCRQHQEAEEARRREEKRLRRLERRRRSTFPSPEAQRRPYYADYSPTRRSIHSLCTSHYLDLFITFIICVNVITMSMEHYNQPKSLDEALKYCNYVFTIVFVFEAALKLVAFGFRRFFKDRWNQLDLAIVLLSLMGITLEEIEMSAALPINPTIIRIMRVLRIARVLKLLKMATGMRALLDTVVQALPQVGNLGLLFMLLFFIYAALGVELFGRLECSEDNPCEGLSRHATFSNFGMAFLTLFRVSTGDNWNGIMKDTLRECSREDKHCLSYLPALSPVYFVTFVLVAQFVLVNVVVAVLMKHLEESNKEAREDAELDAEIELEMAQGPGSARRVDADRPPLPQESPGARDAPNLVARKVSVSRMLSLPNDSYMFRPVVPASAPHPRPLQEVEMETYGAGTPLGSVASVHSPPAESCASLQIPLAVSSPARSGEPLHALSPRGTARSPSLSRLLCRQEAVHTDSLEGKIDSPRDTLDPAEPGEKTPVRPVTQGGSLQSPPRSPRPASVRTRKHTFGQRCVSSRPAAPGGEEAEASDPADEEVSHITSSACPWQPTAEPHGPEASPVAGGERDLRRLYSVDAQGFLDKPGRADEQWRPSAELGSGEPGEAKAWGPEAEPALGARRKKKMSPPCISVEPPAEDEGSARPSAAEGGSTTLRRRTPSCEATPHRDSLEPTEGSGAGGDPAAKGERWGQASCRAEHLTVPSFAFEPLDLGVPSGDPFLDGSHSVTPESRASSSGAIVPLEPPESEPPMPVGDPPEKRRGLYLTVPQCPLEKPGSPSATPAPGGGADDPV

On to `CN(C)[C@@H](CCOc1cccc2ccccc12)c1ccccc1` [Dapoxetine, reference compound], for which the inhibition at 30 µM at KV4.3 was 74%.
For the molecule `Fc1ccc(C(OCCN2CCN(CCCc3ccccc3)CC2)c2ccc(F)cc2)cc1` [vanoxerine], the IC50 was 0.0852 µM with late INa current and […] with hERG channel [1].
Take `COc1ccccc1OCC(O)CN1CCN(CC(=O)Nc2c(C)cccc2C)CC1` (centres unmarked) [ranolazine]: the “block of late INa” value in the data set with late INa [2] was 21%.
Consider `Cc1cccc(C)c1OCC(C)N` (centres unmarked) [mexiletine], for which the “disappearance of erythromycin-induced EADs (preparations)” value in the data set on canine Purkinje fibres was 7/9. The “block of late sodium current” value in the data set with late sodium current was “about 20%”. Moreover, the 50% inhibitory concentration (IC50) in the data set on late INa [3] was 17.6 ± 1.9 µM; in the data set on fast INa it was 34.6 ± 2.9 µM; in the data set on hERG channel [4] it was 3.7 ± 0.7 µM. Also, the therapeutic concentrations in data set [5] was 3.4 to 9.5 µM.
As for `COc1ccc(CNCc2cccc3ccccc23)cc1` [ML 133, reference compound], the “Reference compound % inhibition” value at Kir2.1 is “ML 133 (10 μM): 96%”.
As for `CC(C)(C)c1ccc(C(O)CCCN2CCC(C(O)(c3ccccc3)c3ccccc3)CC2)cc1` (centres unmarked) [Terfenadine, reference compound], on KV1.5, the inhibition at 10 µM is 81%.
For `OC(c1cc(C(F)(F)F)nc2c(C(F)(F)F)cccc12)C1CCCCN1` (centres unmarked) [Mefloquine, reference compound], the inhibition at 10 µM at KV7.1/mink was 61%.
Regarding `COCC(=O)O[C@]1(CCN(C)CCCc2nc3ccccc3[nH]2)CCc2cc(F)ccc2[C@@H]1C(C)C` [Mibefradil, reference compound], at CaV3.2, the inhibition at 1 µM worked out at 83%.
`CCCCCCC[N+](CC)(CC)CCCCc1ccc(Cl)cc1` [clofilium, reference compound]: the “QTc interval (ms) (mean ± SEM)” value worked out at 152 ± 2 ms in the data set with anaesthetized rabbits (both, rabbit, in vivo); 157 ± 3 ms in the data set on anaesthetized rabbits (both, rabbit, in vivo, 20 min); 168 ± 5 ms in the data set with anaesthetized rabbits (both, rabbit, in vivo, 30 min); 172 ± 8 ms in the data set with anaesthetized rabbits (both, rabbit, in vivo, 40 min). Moreover, the “prolongation of QTc interval vs. baseline” value with anaesthetized rabbits (both, rabbit, in vivo, iv, 60 min) is “+13 ± 5%”. Further, the TdP occurrence in the data set with anaesthetized rabbits (clofilium up to 1 mg·kg^−1, n = 3/4) was 75%. The ventricular tachycardia incidence in the data set with anaesthetized rabbits (clofilium up to 1 mg·kg^−1, n = 4/4) amounted to 100%. Moreover, the “increase in UTA ratio” value in data set [6] turned out to be 90%.
Consider `CCN(CC)CC(=O)Nc1c(C)cccc1C` [Lidocaine], for which the “block of late sodium current” value with late sodium current was “about 20%”.
`CN(CCOc1ccc(NS(C)(=O)=O)cc1)CCc1ccc(NS(C)(=O)=O)cc1` [dofetilide, reference compound]: the “induction of EADs or triggered activity” value with rabbit Purkinje fibres (0.1 μM) is on record as “all 10 preparations”. In the data set with rabbit Purkinje fibres (dofetilide 0.1 μM for 35 min, 0.25 Hz, trace of Figure 3B), this molecule returned an APD90 of 593 ms. The “QT prolongation corresponding to a 10% hERG blockade” value in the data set with hERG is 20 ms.
